Measured values from patent publication US9765085B2, “SHIP1 modulators and methods related thereto” (Aquinox Pharmaceuticals (Canada) Inc., priority 2013, dated 2017).

These molecules were tested against T1, His-hSHIP1 enzyme (Homo sapiens, UniProt Q92835) (assay: His-hSHIP1 activity (phosphatase assay, IP4 substrate, Biomol Green)). Details: ratio of initial velocities (IP4 25/IP4 250 μM final) compared with a reference SHIP1 activator; 37° C.
T1 construct: His
T1 sequence (Q92835 1-1189): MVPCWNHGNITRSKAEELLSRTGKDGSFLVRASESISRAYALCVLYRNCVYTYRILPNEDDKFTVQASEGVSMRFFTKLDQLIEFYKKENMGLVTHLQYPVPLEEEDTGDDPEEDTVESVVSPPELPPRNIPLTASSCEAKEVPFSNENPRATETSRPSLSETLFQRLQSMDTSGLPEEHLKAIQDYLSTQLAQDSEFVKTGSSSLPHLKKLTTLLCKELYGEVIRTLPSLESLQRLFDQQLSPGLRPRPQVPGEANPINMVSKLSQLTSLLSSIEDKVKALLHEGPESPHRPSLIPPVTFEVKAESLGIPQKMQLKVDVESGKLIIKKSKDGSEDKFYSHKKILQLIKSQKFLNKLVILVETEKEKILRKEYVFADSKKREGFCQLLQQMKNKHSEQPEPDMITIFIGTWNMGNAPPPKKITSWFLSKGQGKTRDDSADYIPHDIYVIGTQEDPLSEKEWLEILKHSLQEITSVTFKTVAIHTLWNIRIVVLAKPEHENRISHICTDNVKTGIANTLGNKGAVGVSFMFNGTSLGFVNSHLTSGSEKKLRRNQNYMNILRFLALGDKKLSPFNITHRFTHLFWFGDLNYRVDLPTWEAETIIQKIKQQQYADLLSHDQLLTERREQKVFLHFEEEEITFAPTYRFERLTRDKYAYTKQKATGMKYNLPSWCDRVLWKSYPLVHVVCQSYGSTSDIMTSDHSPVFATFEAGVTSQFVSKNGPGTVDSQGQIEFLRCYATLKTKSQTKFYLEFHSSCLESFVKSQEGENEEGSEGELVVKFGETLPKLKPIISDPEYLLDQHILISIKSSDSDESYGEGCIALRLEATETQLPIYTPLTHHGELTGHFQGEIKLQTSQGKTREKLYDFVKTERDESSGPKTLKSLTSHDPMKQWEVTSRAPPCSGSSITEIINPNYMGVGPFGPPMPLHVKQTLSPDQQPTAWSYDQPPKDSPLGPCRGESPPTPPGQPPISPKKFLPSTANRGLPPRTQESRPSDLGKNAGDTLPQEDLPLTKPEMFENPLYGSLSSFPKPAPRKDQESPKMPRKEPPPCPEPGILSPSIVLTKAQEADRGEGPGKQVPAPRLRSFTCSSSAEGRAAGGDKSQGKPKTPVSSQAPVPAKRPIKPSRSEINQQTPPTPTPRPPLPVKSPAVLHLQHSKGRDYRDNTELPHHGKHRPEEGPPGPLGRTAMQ
Type: biochemical
Set-up: key: +++: higher than reference or reference - 15%; ++: reference - 16% to reference - 30%; +: reference - 31% or lower; −: inhibitor
Experimental: Test compounds are dissolved in 95% ethanol to form stock solutions. Before screening, the stock solutions are diluted with Phosphatase Assay Buffer (20 mM Tris-HCL, 10 mM MgCl2 pH 7.5, 0.02% Tween 20) to form working assay solutions that contain 10% ethanol. The assay is carried out on 96-well microtiter plates using a modified procedure of that reported by Ong et al., Blood 110, 1942-1949, 2007 and Yang et al., Org Lett 7, 1073-1076, 2005, both of which references are incorporated herein by reference in their entirety.
A master mix is prepared that contains 50 μL of His-hSHIP1 enzyme (0.4-1.6 ng/μL final), 25 μL of the substrate, IP4 (25 or 250 μM final), and 50 μL of test compound in 3.3% ethanol ([…]). Control blanks are also prepared by replacing His-hSHIP1 enzyme, IP4, or test compounds with Phosphate Assay Buffer. […] Each reaction component is preincubated at 37° C. for 30 min before adding to a 96-well microtiter plate. The master mix is then incubated at 37° C. At time 0, 20, 25 and 30 min, 25 μL of the master mix is removed and transferred to a new 96-well microtiter plate, to which 100 μL of Biomol Green Reagent is added to stop the reaction. After incubating the mixture for 20 min at room temperature for color development, the absorbance is read with SpectraMax Plus 96-well plate reader at a wavelength of 650 nm. Phosphate released is plotted against time to calculate the initial velocities (i.e., slope of the graph) at each IP4 concentration. The initial velocities are baseline corrected and the ratio of initial velocities (IP425/IP4250) is calculated and used to rate the test compounds.
The compound numbers in Table 2 correspond to the compound numbers in Table 1 above. Scoring of the compound is expressed as follows: […]
With `C[C@]1([C@H]2CC[C@]3(C)c4ncccc4C[C@H]3[C@@H]2CN)CC[C@H](O)C[C@@H]1CO` [compound 9, (1S,3S,4R)-4-((5aS,6R,7S,9aS)-6-(aminomethyl)-9a-methyl-5a,6,7,8,9,9a-hexahydro-5H-indeno[1,2-b]pyridin-7-yl)-3-(hydroxymethyl)-4-methylcyclohexanol] the “Scoring (Initial Velocity Ratio)” value was “++”. With “(1S,3S,4R)-4-((2R,3S,3aR,3bS,5′R,6S,7R,7aS,8aS)-7-(aminomethyl)-3,3b,5′-trimethyltetradecahydrospiro[indeno[2,1-b]furan-2,2′-pyran]-6-yl)-3-(hydroxymethyl)-4-methylcyclohexanol acetate [compound 14]” the “Scoring (Initial Velocity Ratio)” value was “++”. With `C[C@]1([C@H]2CC[C@]3(C)C(c4ccco4)=CC[C@H]3[C@@H]2CO)CC[C@H](O)C[C@@H]1CO` [compound 30, (1S,3S,4R)-4-((3aS,6S,7R,7aS)-3-(furan-2-yl)-7-(hydroxymethyl)-3a-methyl-3a,4,5,6,7,7a-hexahydro-1H-inden-6-yl)-3-(hydroxymethyl)-4-methylcyclohexanol] the “Scoring (Initial Velocity Ratio)” value was “+”. For `C[C@]1([C@H]2CC[C@@]3(C)[C@@H](CC[C@@]3(O)c3ccccn3)[C@@H]2CO)CC[C@H](O)C[C@@H]1CO` [compound 36, (1S,3aS,4R,5S,7aS)-5-((1R,2S,4S)-4-hydroxy-2-(hydroxymethyl)-1-methylcyclohexyl)-4-(hydroxymethyl)-7a-methyl-1-(pyridin-2-yl)octahydro-1H-inden-1-ol], the “Scoring (Initial Velocity Ratio)” value was “++”. For `CC1(C)CCC2=C1CC[C@H]([C@@]1(C)Cc3cnoc3C[C@@H]1CO)[C@H]2CO` [compound 23, ((5R,6S)-5-((4R,5S)-4-(hydroxymethyl)-1,1-dimethyl-2,3,4,5,6,7-hexahydro-1H-inden-5-yl)-5-methyl-4,5,6,7-tetrahydrobenzo[d]isoxazol-6-yl)methanol], the “Scoring (Initial Velocity Ratio)” value was “+++”. `C[C@]1([C@H]2CC[C@]3(C)C(c4ccccc4)=CC[C@H]3[C@@H]2CO)CC[C@H](O)C[C@@H]1CO` [compound 25, (1S,3S,4R)-3-(hydroxymethyl)-4-((3aS,6S,7R,7aS)-7-(hydroxymethyl)-3a-methyl-3-phenyl-3a,4,5,6,7,7a-hexahydro-1H-inden-6-yl)-4-methylcyclohexanol] was tested, and the “Scoring (Initial Velocity Ratio)” value was “++”. In the case of `C[C@]1([C@H]2CC[C@@]3(C)[C@@H](CC[C@@]3(O)c3cccs3)[C@@H]2CO)CC[C@H](O)C[C@@H]1CO` [compound 34, (1S,3aS,4R,5S,7aS)-5-((1R,2S,4S)-4-hydroxy-2-(hydroxymethyl)-1-methylcyclohexyl)-4-(hydroxymethyl)-7a-methyl-1-(thiophen-2-yl)octahydro-1H-inden-1-ol], the “Scoring (Initial Velocity Ratio)” value is reported as “+”. `C[C@]1([C@H]2CC[C@@]3(C)[C@@H](CC[C@@]3(O)c3ccccc3)[C@@H]2CO)CC[C@H](O)C[C@@H]1CO` [compound 26, (1S,3aS,4R,5S,7aS)-5-((1R,2S,4S)-4-hydroxy-2-(hydroxymethyl)-1-methylcyclohexyl)-4-(hydroxymethyl)-7a-methyl-1-phenyloctahydro-1H-inden-1-ol] was tested, and the “Scoring (Initial Velocity Ratio)” value was “−”. For `C[C@]1([C@H]2CCC3=C(C[C@@H](O)[C@@]3(C)c3ccccc3)[C@@H]2CO)CC[C@H](O)C[C@@H]1CO` [compound 37, (1S,2R,4R,5S)-5-((1R,2S,4S)-4-hydroxy-2-(hydroxymethyl)-1-methylcyclohexyl)-4-(hydroxymethyl)-1-methyl-1-phenyl-2,3,4,5,6,7-hexahydro-1H-inden-2-ol], the “Scoring (Initial Velocity Ratio)” value was “+”.
